Activity calls are given as the source filed them. The rule behind the calls is not given here.
Columns and labels:
HepG2 [1] = test: Cytotoxicity against human HepG2 cells assessed as reduction in cell viability up to 100 uM after 48 hrs by MTT assay; type: cell-based; settings: hepg2, 48 h
HEK293 [2] = test: Cytotoxicity against HEK293 cells assessed as reduction in cell viability up to 100 uM after 48 hrs by MTT assay; type: cell-based; settings: human, hek293, 48 h
HepG2 [3] = test: Cytotoxicity against human HepG2 cells assessed as morphological alteration up to 100 uM after 48 hrs by MTT assay; type: cell-based; settings: hepg2, 48 h
HEK293 [4] = test: Cytotoxicity against HEK293 cells assessed as morphological alteration up to 100 uM after 48 hrs by MTT assay; type: cell-based; settings: human, hek293, 48 h
HepG2 [5] = test: Cytotoxicity against human HepG2 cells assessed as reduction in cell viability at 500 uM after 24 to 48 hrs by MTT assay relative to control; type: cell-based; settings: hepg2, 500 µM
HEK293 [6] = test: Cytotoxicity against HEK293 cells assessed as reduction in cell viability at 500 uM after 24 to 48 hrs by MTT assay relative to control; type: cell-based; settings: human, hek293, 500 µM
HEK293 [7] = test: Inhibition of esterase in HEK293 cells at 100 uM after 1 hr by calcein-AM dye-based fluorescence assay relative to control; type: cell-based; settings: Homo sapiens
HepG2 [8] = test: Inhibition of esterase in human hepG2 cells at 100 uM after 1 hr by calcein-AM dye-based fluorescence assay relative to control; type: cell-based
[9] = target: Acetylcholinesterase (Homo sapiens) (UniProt P22303); test: Inhibition of AChE (unknown origin) assessed as residual activity at 10 uM using acetylthiocholine chloride as substrate measured for 10 mins (reference value: 100 +/- 1.2%)
[10] = target: Acetylcholinesterase (Homo sapiens) (UniProt P22303); test: Inhibition of AChE (unknown origin) assessed as residual activity at 50 uM using acetylthiocholine chloride as substrate measured for 10 mins (reference value: 100 +/- 1.2%)
[11] = target: Acetylcholinesterase (Homo sapiens) (UniProt P22303); test: Inhibition of AChE (unknown origin) assessed as residual activity at 100 uM using acetylthiocholine chloride as substrate measured for 10 mins (reference value: 100 +/- 1.2%)
[12] = target: Acetylcholinesterase (Homo sapiens) (UniProt P22303); test: Inhibition of AChE (unknown origin) using acetylthiocholine chloride as substrate measured for 10 mins
HepG2 [13] = test: Inhibition of HAT in human HepG2 cells assessed as decrease in histone H3 acetylation at Lys27 residues at 100 uM incubated for 48 hrs by Western blot analysis relative to control; type: cell-based
HEK293 [14] = test: Inhibition of HAT in HEK293 cells assessed as decrease in histone H3 acetylation at Lys27 residues at 100 uM incubated for 48 hrs by Western blot analysis relative to control; type: cell-based; settings: Homo sapiens
HepG2 [15] = test: Inhibition of HAT in human HepG2 cells assessed as decrease in histone H3 acetylation at Lys27 residues at 100 uM incubated for 48 hrs in presence of TSA by Western blot analysis; type: cell-based
HEK293 [16] = test: Inhibition of HAT in HEK293 cells assessed as decrease in histone H3 acetylation at Lys27 residues at 100 uM incubated for 48 hrs in presence of TSA by Western blot analysis; type: cell-based; settings: Homo sapiens
[17] = target: ATP-binding cassette sub-family C member 6 (Homo sapiens, UniProt O95255); test: Inhibition of ABCC6 (unknown origin) expressed in HEK293 cells assessed as increase in doxorubicin efflux at 100 uM after 30 mins by fluorescence assay; type: cell-based; settings: hek293, 0.5 h
ATP-binding cassette sub-family C member 6, sequence (O95255 whole entry): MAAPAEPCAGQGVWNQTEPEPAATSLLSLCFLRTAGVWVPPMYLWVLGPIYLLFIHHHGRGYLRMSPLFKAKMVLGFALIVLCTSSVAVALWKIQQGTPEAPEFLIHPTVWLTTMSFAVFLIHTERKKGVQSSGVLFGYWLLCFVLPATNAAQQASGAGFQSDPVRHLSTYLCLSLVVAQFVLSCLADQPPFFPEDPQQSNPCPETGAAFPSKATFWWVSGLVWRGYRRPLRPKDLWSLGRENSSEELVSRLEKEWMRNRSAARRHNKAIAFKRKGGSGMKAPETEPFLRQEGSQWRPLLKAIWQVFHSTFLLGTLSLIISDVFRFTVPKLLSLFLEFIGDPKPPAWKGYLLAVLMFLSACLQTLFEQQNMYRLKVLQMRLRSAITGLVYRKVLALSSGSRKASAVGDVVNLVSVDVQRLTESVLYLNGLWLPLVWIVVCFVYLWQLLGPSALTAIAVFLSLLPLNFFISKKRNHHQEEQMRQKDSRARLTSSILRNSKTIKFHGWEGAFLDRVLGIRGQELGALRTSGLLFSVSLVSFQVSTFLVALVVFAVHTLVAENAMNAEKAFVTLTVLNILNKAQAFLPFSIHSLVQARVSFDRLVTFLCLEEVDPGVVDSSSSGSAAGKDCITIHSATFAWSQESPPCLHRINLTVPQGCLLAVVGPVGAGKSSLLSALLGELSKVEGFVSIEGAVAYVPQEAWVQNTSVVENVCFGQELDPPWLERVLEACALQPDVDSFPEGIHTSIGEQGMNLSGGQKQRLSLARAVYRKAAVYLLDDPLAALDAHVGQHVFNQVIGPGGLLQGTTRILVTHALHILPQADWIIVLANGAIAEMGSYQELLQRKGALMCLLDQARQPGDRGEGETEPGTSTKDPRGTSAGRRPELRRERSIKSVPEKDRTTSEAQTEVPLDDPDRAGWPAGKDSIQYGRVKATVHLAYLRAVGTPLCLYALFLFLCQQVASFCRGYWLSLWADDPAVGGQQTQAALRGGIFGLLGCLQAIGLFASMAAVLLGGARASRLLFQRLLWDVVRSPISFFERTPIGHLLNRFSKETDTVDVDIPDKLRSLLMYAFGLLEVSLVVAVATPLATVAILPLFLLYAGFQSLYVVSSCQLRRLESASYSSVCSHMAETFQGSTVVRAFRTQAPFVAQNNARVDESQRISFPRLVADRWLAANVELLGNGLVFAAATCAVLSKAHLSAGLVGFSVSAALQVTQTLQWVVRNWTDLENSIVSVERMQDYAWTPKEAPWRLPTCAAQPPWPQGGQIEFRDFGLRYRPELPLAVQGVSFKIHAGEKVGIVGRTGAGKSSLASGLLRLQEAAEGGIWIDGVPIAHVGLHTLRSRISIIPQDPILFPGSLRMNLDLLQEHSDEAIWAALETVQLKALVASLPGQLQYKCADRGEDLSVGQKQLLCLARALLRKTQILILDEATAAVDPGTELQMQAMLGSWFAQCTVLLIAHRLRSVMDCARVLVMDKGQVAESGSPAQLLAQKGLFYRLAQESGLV

Acetylcholinesterase (Homo sapiens), sequence (P22303 whole entry): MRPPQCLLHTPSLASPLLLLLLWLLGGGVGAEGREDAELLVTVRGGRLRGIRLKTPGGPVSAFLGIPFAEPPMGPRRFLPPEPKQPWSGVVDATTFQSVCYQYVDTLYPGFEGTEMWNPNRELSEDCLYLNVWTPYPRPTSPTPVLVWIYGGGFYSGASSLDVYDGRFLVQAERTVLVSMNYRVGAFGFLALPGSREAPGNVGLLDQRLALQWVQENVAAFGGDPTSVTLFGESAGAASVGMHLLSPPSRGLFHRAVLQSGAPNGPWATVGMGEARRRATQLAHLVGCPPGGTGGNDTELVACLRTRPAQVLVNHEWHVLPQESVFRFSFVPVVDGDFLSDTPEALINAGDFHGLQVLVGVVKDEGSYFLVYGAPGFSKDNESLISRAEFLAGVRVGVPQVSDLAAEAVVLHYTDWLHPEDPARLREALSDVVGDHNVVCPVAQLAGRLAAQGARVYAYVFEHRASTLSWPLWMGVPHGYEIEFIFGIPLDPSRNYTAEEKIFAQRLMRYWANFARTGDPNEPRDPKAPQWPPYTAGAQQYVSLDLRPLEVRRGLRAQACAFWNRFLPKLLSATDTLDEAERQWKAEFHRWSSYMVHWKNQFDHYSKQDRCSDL

Question: For CC/C=C\COC1(c2ccc(Cl)cc2)SC=C(C)n2c1noc2=O (configuration not stated), which Activity (HepG2 [1]) is on record?
Answer: Non-Toxic

Question: What about the Activity (HEK293 [2]) of the same compound?
Answer: Non-Toxic

Question: What about the Activity (HepG2 [3]) of the same compound?
Answer: Non-Toxic

Question: What about the Activity (HEK293 [4]) of the same compound?
Answer: Non-Toxic

Question: And the Activity (HepG2 [5])?
Answer: 50%

Question: And the Activity (HEK293 [6])?
Answer: 50%

Question: What about the inhibition (HEK293 [7]) of the same compound?
Answer: 60%

Question: And the inhibition (HepG2 [8])?
Answer: 50%

Question: And the Activity [9]?
Answer: 80%

Question: What about the Activity [10] of the same compound?
Answer: 61%

Question: And the Activity [11]?
Answer: 56%

Question: What about the inhibition [12] of the same compound?
Answer: Dose-dependent effect

Question: What about the inhibition (HepG2 [13]) of the same compound?
Answer: 56%

Question: What about the inhibition (HEK293 [14]) of the same compound?
Answer: 80%

Question: And the inhibition (HepG2 [15])?
Answer: Active

Question: And the inhibition (HEK293 [16])?
Answer: Active

Question: And the “inhibition (INH)” value [17]?
Answer: Active

Reference: ChEMBL document CHEMBL4422616, “The P-glycoprotein inhibitor diltiazem-like 8-(4-chlorophenyl)-5-methyl-8-[(2Z)-pent-2-en-1-yloxy]-8H-[1,2,4]oxadiazolo[3,4-c][1,4]thiazin-3-one inhibits esterase activity and H3 histone acetylation” (Eur J Med Chem, 2019)
